{
  "source": "patent US20050004029A1",
  "about": "“Methods and compositions for treating vascular leak using hepatocyte growth factor” (priority 2001, published 2005)",
  "key": {"[1]": {"test_system": "p42/44 ERK", "assay": "p42/44 ERK activation by phospho-specific immunoblotting", "type": "cell-based, human", "conditions": "HGF 20 ng/ml", "experimental": "(§1) Endothelial cell monolayers grown to confluence in 12-well plates and challenged with HGF were lysed with 100 μl of 2×SDS sample buffer, and cell lysates were transferred into microcentrifuge tubes and boiled for 5 min. After a brief spin, proteins from 10 μl cell lysates were separated on 12% SDS-PAGE and transferred to nitrocellulose (Schleicher & Schuell, Keene, N.H.) (30V, 18 h). After blocking with PBST (PBS with 0.1% Tween 20) containing 5% non-fat milk for 1 hr, nitrocellulose blots were reacted with primary antibodies diluted in PBST containing 5% BSA for 1 hr, washed with PBST (3×10 min), incubated with peroxidase-conjugated secondary antibodies (goat anti-rabbit IgG, 1:10,000 dilution, Sigma; or goat anti-mouse IgG, 1:10,000 dilution, Bio-Rad Labs, Richmond, Calif.) diluted in PBST with 5% non-fat milk for 1 hr and again washed with PBST (3×10 min). Finally, immunoreactive proteins were detected using ECL. The relative intensities of the protein bands were quantified by scanning densitometry.\nThe MAP family of kinases (ERK1/2 and p38) are actively involved in agonist-induced endothelial cell actin reorganization and barrier regulation (Verin, A. D. et al. (2000) Am. J. Physiol: Lung Cell Molec. Phys. 279:L360-L370, 2000; Garcia, J. G. N. et al. (2001) J. Clin. Invest. 108:689-711) and have been noted to participate in HGF-mediated cell activation (Liang, C. C. and Chen, H. C. (2001) J. Biol. Chem. 276:21146-21152). These reports were confirmed in human endothelial cell monolayers incubated with HGF (20 ng/ml, for 1, 2, 5, 10, 15, 20, 30, 60, or 120 min) where activation of p42/44 ERK and p38 MAPK by HGF was detected by immunoblotting with antibodies that only recognize the phosphorylated (activated) forms of ERK or p38 MAPK. The activation of ERKs was evident at 5 min, maximal after 10-15 min with a gradual decline thereafter, but remaining sustained above basal levels for more than 2 hrs. […] The onset of HGF-mediated activation of p38 MAPK was similar to ERK, with plateau at 10-15 min. However, the duration of this response was much more truncated than ERK activation, beginning to decline by 20 min and returning to basal value by 1 hr."}, "[2]": {"test_system": "GSK3β", "assay": "GSK3β Ser9 phosphorylation by western immunoblot", "type": "cell-based, human", "conditions": "after HGF treatment", "experimental": "as §1\nHGF has been reported to increase the phosphorylation status of GSK3β, a multi-functional enzyme involved in glycogen synthesis and protein synthesis regulation activity in mammary epithelial cells (Papkoff, J. and Aikawa, M. (1998) Biochem. Biophys. Res. Commun. 247:851-858). Of potential importance to barrier regulation, GSK3β phosphorylation results in enzymatic inactivation and increases the level of uncomplexed cellular β-catenin (Papkoff, J. (1997) J. Biol. Chem. 272(7):4536-4543). […] Concomitant with HGF-induced TER augmentation, increases in phosphorylation of GSK3β after HGF treatment was detected by increased immunofluorescence and prominent by Western blotting at 2 min, with peak intensity leveling off at 15-30 min, although remaining above basal levels for more than 2 hr. […]"}, "[3]": {"test_system": "human endothelial monolayers", "assay": "F-actin immunofluorescent microscopy (cortical actin ring)", "type": "cell-based", "conditions": "HGF 20 ng/ml", "experimental": "(§2) Endothelial cell monolayers grown on gelatinized cover slips were rinsed with M199 and incubated with agonists in the same medium in a 37° C. incubator (5% CO2). Monolayers were then rinsed with PBS (3×2 min), fixed in 4% paraformaldehyde for 10 min, again rinsed with PBS (3×2 min), and permeabilized with 0.25% Triton X-100 for 5 min. Cells were then washed briefly with PBS (3×2 min), blocked with PBS containing 2% BSA for 30 min and incubated with 1 Unit/mL of Texas Red-X phalloidin (Molecular Probes, Eugene, Oreg.), β-catenin antibody (Transduction Laboratories, Lexington, Ky.), glycogen synthase kinase-3 β (GSK-3β) (Santa Cruz Biotechnology, Inc., Santa Cruz, Calif.), or mono-phosphorylated MLC antisera (see Garcia, J. G. N. et al. (2001) J. Clin. Invest. 108:689-711) for 1 hr. After washing with PBS (3×2 min), cover slips were mounted on slides using SlowFade mounting medium (Molecular Probes). Cells were analyzed using a 60× oil objective on a Nikon Eclipse TE 300 microscope. Images were captured by Sony Digital Photo camera DKC 5000. […]\nThe effect of HGF on the spatial localization of polymerized actin in human endothelial monolayers was investigated by immunofluorescent microscopy. […] F-actin staining was assessed with Texas red phalloidin and myosin light chain staining evaluated with anti-monophosphorylated myosin light chain polyclonal antibody."}, "[4]": {"test_system": "human endothelial cells", "assay": "β-catenin immunofluorescent microscopy", "type": "cell-based", "conditions": "HGF-stimulated cells", "experimental": "as §2, with “5000. The same exposure time was applied to all samples within one experiment.” for “5000.”"}, "[5]": {"test_system": "Human pulmonary artery endothelial cells", "assay": "Transendothelial electrical resistance (TER) of human pulmonary artery endothelial cell monolayers", "type": "cell-based", "conditions": "HGF 100 ng/ml; baseline TER ~1600 Ω"}},
  "data": [
    {"substance": "HGF: heparin-binding glycoprotein, multifunctional cytokine, ligand of c-Met; purchased from R&D Systems", "values": [
      {"measurement": "duration of ERK activation above basal levels", "setting": "[1]", "result": "more than 2 hrs"},
      {"measurement": "time at which ERK activation is evident", "setting": "[1]", "result": 5, "unit": "min"},
      {"measurement": "time of maximal ERK activation", "setting": "[1]", "result": "10 to 15", "unit": "min"},
      {"measurement": "duration of GSK3β phosphorylation above basal levels", "setting": "[2]", "result": "more than 2 hr"},
      {"measurement": "time of peak GSK3β phosphorylation", "setting": "[2]", "result": "15 to 30", "unit": "min"},
      {"measurement": "time at which GSK3β phosphorylation is prominent", "setting": "[2]; Western blotting", "result": 2, "unit": "min"},
      {"measurement": "F-actin staining", "setting": "[3]", "result": "rapid enhancement of F-actin staining spatially confined to the cortical cytoskeletal ring"},
      {"measurement": "β-catenin immunoreactivity", "setting": "[4]", "result": "increased β-catenin immunoreactivity along cell borders"},
      {"measurement": "peak TER", "setting": "[5]", "result": "~2400 Ω"}
    ]}
  ]
}
